As usually defined, the EC50 is the concentration giving half of the maximal effect. A word on the Ki: it is a measure of affinity in units of concentration, obtained from inhibition or displacement. Low readings indicate tighter binding, high ones weaker binding.

One assay has as its system Canine platelets. Put plainly: Platelet cell viability assay (platelet-rich plasma, Cell Titer Glo). Format: cell-based. To be noted: Canis lupus familiaris, 5 h, isolated canine platelets ex vivo, five hours at 37° C. A digest of the protocol:
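Isolated canine platelets were incubated ex vivo with a range of compound concentrations. After 20 min equilibration at room temperature, viability was measured by Cell Titer Glo luminescence.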
A general note: Cellular ATP, detected with luciferase, serves as a proxy for viable cell number.

The target in the next assay is GST-Bcl-XL (Homo sapiens, UniProt Q07817). Put plainly: TR-FRET binding assay, GST-Bcl-XL with F-Bak peptide probe. To be noted: TR-FRET Binding Affinity, GST-Bcl-XL, F-Bak peptide probe. A digest of the protocol: (§1)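 Displacement of a fluorescein-labelled Bak peptide from the GST-tagged protein was followed by time-resolved FRET with a terbium anti-GST donor after 3 h incubation at room temperature. Inhibition constants were calculated with Wang's equation.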
On the technique in general: Time-resolved FRET reads energy transfer from a long-lived donor to a nearby acceptor.

A further assay has as its system FL5.12/Bcl-2 cells. Put plainly: FL5.12/Bcl-2 cell viability assay under IL-3 withdrawal (CellTitre Glo). Format: cell-based, murine. The settings on record: Mus musculus, IL-3 withdrawn 48 hrs, then 24 hrs with compound. In short, it runs like this: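 Viability measured by CellTitre Glo after FL5.12/Bcl-2 murine cells, starved of IL-3 for 48 hrs, were treated with compounds for another 24 hrs. Killing reflects inhibition of Bcl-2 sequestration of Bim and Puma.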

The target of another assay is GST-Bcl-2 (Homo sapiens, UniProt P10415). Briefly: TR-FRET binding assay, GST-Bcl-2 with F-Bak peptide probe. The settings on record: TR-FRET Binding Affinity, GST-Bcl-2, F-Bak peptide probe. A digest of the protocol:
as §1

Chain of GST-Bcl-2 (P10415 whole entry): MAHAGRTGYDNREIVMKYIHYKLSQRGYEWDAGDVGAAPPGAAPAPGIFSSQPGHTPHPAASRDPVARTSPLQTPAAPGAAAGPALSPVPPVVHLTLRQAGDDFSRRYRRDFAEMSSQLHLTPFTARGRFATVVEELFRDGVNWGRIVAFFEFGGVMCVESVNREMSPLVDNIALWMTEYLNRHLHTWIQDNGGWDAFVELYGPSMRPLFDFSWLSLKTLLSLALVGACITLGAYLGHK
Chain of GST-Bcl-XL (Q07817 whole entry): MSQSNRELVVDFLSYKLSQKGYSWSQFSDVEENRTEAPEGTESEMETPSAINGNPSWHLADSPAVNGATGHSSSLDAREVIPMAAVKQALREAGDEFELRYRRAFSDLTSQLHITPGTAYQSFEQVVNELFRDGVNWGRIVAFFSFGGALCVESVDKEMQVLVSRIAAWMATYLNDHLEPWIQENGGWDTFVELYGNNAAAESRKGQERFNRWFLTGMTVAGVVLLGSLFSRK

For `CN(C)CCOc1cccc(-c2ccc(Cl)cc2)c1CN1CCN(c2ccc(C(=O)NS(=O)(=O)c3ccc(NCC4CCOCC4)c([N+](=O)[O-])c3)c(Oc3cccc4[nH]ccc34)c2)CC1` [Example 128, 4-[4-({4′-chloro-3-[2-(dimethylamino)ethoxy]-1,1′-biphenyl-2-yl}methyl)piperazin-1-yl]-2-(1H-indol-4-yloxy)-N-({3-nitro-4-[(tetrahydro-2H-pyran-4-ylmethyl)amino]phenyl}sulfonyl)benzamide], the values for the EC50 in the assay with Canine platelets and in the assay with FL5.12/Bcl-2 cells were greater than 50000 nM and 25 nM, respectively. The figures for the Ki on GST-Bcl-XL and on GST-Bcl-2 were 363 nM and 0.051 nM, respectively.
On the same counts, the results for `O=C(NS(=O)(=O)c1ccc(NCC2CCOCC2)c([N+](=O)[O-])c1)c1ccc(N2CCN(Cc3cc(OCCN4CCOCC4)ccc3-c3ccc(Cl)cc3)CC2)cc1Oc1cccc2[nH]ccc12` [Example 130, 4-(4-{[4′-chloro-4-(2-morpholin-4-ylethoxy)-1,1′-biphenyl-2-yl]methyl}piperazin-1-yl)-2-(1H-indol-4-yloxy)-N-({3-nitro-4-[(tetrahydro-2H-pyran-4-ylmethyl)amino]phenyl}sulfonyl)benzamide] are greater than 50000 nM, 197 nM, greater than 660 nM and 0.14 nM.
On the same counts, the results for `O=C(NS(=O)(=O)c1ccc(NCC2CCOCC2)c([N+](=O)[O-])c1)c1ccc(N2CCN(Cc3c(OCCN4CCOCC4)cccc3-c3ccc(Cl)cc3)CC2)cc1Oc1cccc2[nH]ccc12` [Example 131, 4-(4-{[4′-chloro-3-(2-morpholin-4-ylethoxy)-1,1′-biphenyl-2-yl]methyl}piperazin-1-yl)-2-(1H-indol-4-yloxy)-N-({3-nitro-4-[(tetrahydro-2H-pyran-4-ylmethyl)amino]phenyl}sulfonyl)benzamide] are greater than 50000 nM, 31 nM, 243 nM and 0.106 nM.
Regarding `O=C(NS(=O)(=O)c1ccc(NCC2CCOCC2)c([N+](=O)[O-])c1)c1ccc(N2CCN(Cc3c(OCCN4CCOCC4)cccc3-c3ccc(Cl)cc3)CC2)cc1Oc1ccc2[nH]ccc2c1` [Example 132, 4-(4-{[4′-chloro-3-(2-morpholin-4-ylethoxy)-1,1′-biphenyl-2-yl]methyl}piperazin-1-yl)-2-(1H-indol-5-yloxy)-N-({3-nitro-4-[(tetrahydro-2H-pyran-4-ylmethyl)amino]phenyl}sulfonyl)benzamide], the EC50 with Canine platelets is greater than 50000 nM; with FL5.12/Bcl-2 cells it was 42 nM. In addition, the Ki on GST-Bcl-XL worked out at 315 nM; on GST-Bcl-2, 0.553 nM.
In the case of `CN(C)CCOc1ccc(-c2ccc(Cl)cc2)c(CN2CCN(c3ccc(C(=O)NS(=O)(=O)c4ccc(NC5CCN(C)CC5)c([N+](=O)[O-])c4)c(Oc4ccccc4)c3)CC2)c1` [Example 133, 4-[4-({4′-chloro-4-[2-(dimethylamino)ethoxy]-1,1′-biphenyl-2-yl}methyl)piperazin-1-yl]-N-({4-[(1-methylpiperidin-4-yl)amino]-3-nitrophenyl}sulfonyl)-2-phenoxybenzamide], the EC50 with Canine platelets was determined as 95 nM; in the assay on FL5.12/Bcl-2 cells it was 20 nM. For the same compound, the Ki on GST-Bcl-XL came to 0.281 nM; on GST-Bcl-2 it was 0.009 nM.
On the same counts, the results for `CN(C)CCOc1cccc(-c2ccc(Cl)cc2)c1CN1CCN(c2ccc(C(=O)NS(=O)(=O)c3ccc(NCCCN4CCCC4)c([N+](=O)[O-])c3)c(Oc3ccc4[nH]ccc4c3)c2)CC1` [Example 134, 4-[4-({4′-chloro-3-[2-(dimethylamino)ethoxy]-1,1′-biphenyl-2-yl}methyl)piperazin-1-yl]-2-(1H-indol-5-yloxy)-N-({3-nitro-4-[(3-pyrrolidin-1-ylpropyl)amino]phenyl}sulfonyl)benzamide] are 4720 nM, 48 nM, 18 nM and 0.052 nM.
On to `CN(C)CCOc1ccc(-c2ccc(Cl)cc2)c(CN2CCN(c3ccc(C(=O)NS(=O)(=O)c4ccc(NCCCN5CCCC5)c([N+](=O)[O-])c4)c(Oc4ccc5[nH]ccc5c4)c3)CC2)c1` [Example 135, 4-[4-({4′-chloro-4-[2-(dimethylamino)ethoxy]-1,1′-biphenyl-2-yl}methyl)piperazin-1-yl]-2-(1H-indol-5-yloxy)-N-({3-nitro-4-[(3-pyrrolidin-1-ylpropyl)amino]phenyl}sulfonyl)benzamide], for which the EC50 was determined as 4550 nM in the assay on Canine platelets and 42 nM in the assay on FL5.12/Bcl-2 cells. For the same compound, the inhibitory constant (Ki) on GST-Bcl-XL was determined as 6.24 nM; on GST-Bcl-2 it was 0.008 nM.
As to `O=C(NS(=O)(=O)c1ccc(NCCCN2CCCC2)c([N+](=O)[O-])c1)c1ccc(N2CCN(Cc3cc(OCCN4CCOCC4)ccc3-c3ccc(Cl)cc3)CC2)cc1Oc1ccc2[nH]ccc2c1` [Example 136, 4-(4-{[4′-chloro-4-(2-morpholin-4-ylethoxy)-1,1′-biphenyl-2-yl]methyl}piperazin-1-yl)-2-(1H-indol-5-yloxy)-N-({3-nitro-4-[(3-pyrrolidin-1-ylpropyl)amino]phenyl}sulfonyl)benzamide], the concentration giving a half-maximal response (EC50) was greater than 50000 nM with Canine platelets and 190 nM in the assay on FL5.12/Bcl-2 cells. Further, the Ki at GST-Bcl-XL was found to be 61.9 nM; on GST-Bcl-2, 0.259 nM.
In the case of `CN(C)CCOc1ccc(-c2ccc(Cl)cc2)c(CN2CCN(c3ccc(C(=O)NS(=O)(=O)c4ccc(NC5CCN(CC(F)(F)F)CC5)c([N+](=O)[O-])c4)c(Oc4ccccc4)c3)CC2)c1` [Example 137, 4-[4-({4′-chloro-4-[2-(dimethylamino)ethoxy]-1,1′-biphenyl-2-yl}methyl)piperazin-1-yl]-N-[(3-nitro-4-{[1-(2,2,2-trifluoroethyl)piperidin-4-yl]amino}phenyl)sulfonyl]-2-phenoxybenzamide], the EC50 was greater than 50000 nM in the assay with Canine platelets and 281 nM with FL5.12/Bcl-2 cells. The inhibition constant Ki on GST-Bcl-XL was 16 nM; at GST-Bcl-2 it was 0.305 nM.
As to `O=C(NS(=O)(=O)c1ccc(NCC2CCOCC2)c([N+](=O)[O-])c1)c1ccc(N2CCN(Cc3cc(OCCN4CCCC4)ccc3-c3ccc(Cl)cc3)CC2)cc1Oc1ccccc1` [Example 138, 4-(4-{[4′-chloro-4-(2-pyrrolidin-1-ylethoxy)-1,1′-biphenyl-2-yl]methyl}piperazin-1-yl)-N-({3-nitro-4-[(tetrahydro-2H-pyran-4-ylmethyl)amino]phenyl}sulfonyl)-2-phenoxybenzamide], the EC50 in the assay on Canine platelets came to 17800 nM; in the assay with FL5.12/Bcl-2 cells, 29 nM. Further, the Ki is 5.17 nM on GST-Bcl-XL and 0.009 nM on GST-Bcl-2.
The corresponding values for `CC(C)N(CCOc1ccc(-c2ccc(Cl)cc2)c(CN2CCN(c3ccc(C(=O)NS(=O)(=O)c4ccc(NCC5CCOCC5)c([N+](=O)[O-])c4)c(Oc4ccccc4)c3)CC2)c1)C(C)C` [Example 139, 4-[4-({4′-chloro-4-[2-(diisopropylamino)ethoxy]-1,1′-biphenyl-2-yl}methyl)piperazin-1-yl]-N-({3-nitro-4-[(tetrahydro-2H-pyran-4-ylmethyl)amino]phenyl}sulfonyl)-2-phenoxybenzamide] are 38500 nM, 46 nM, 10.4 nM and 0.101 nM.

For the origin of these results see US9073855B2, “BCL-2 selective apoptosis-inducing agents for the treatment of cancer and immune diseases” (AbbVie Inc., priority 2008, dated 2015).
